Test results taken from PubChem BioAssay (NCI).
Values joined by “and” are separate entries in the source; they are usually repeats but may differ in a detail not shown here. Identical values can stand only once.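 48-hour exposure; five concentrations; linearly interpolated endpoints. GI50 = concentration required for 50% inhibition of growth. TGI: concentration producing complete growth inhibition.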

What was measured:
Assay in all cases: inhibition of tumour cell growth, NCI panel, 48 h
DU-145 prostate = tested on: DU-145 prostate
NCI-H23 lung = tested on: NCI-H23 lung
OVCAR-4 ovarian = tested on: OVCAR-4 ovarian
OVCAR-8 ovarian = tested on: OVCAR-8 ovarian
SF-539 CNS = tested on: SF-539 CNS
SK-MEL-2 melanoma = tested on: SK-MEL-2 melanoma
SNB-75 CNS = tested on: SNB-75 CNS
SW-620 colon = tested on: SW-620 colon
T-47D breast = tested on: T-47D breast
TK-10 renal = tested on: TK-10 renal

SMILES | TGI (DU-145 prostate) | TGI (NCI-H23 lung) | TGI (OVCAR-4 ovarian) | TGI (OVCAR-8 ovarian) | TGI (SF-539 CNS) | TGI (SK-MEL-2 melanoma) | TGI (SNB-75 CNS) | TGI (SW-620 colon) | TGI (T-47D breast) | TGI (TK-10 renal) | GI50 (DU-145 prostate) [µM] | GI50 (NCI-H23 lung) [µM] | GI50 (OVCAR-4 ovarian) [µM] | GI50 (OVCAR-8 ovarian) [µM] | GI50 (SF-539 CNS) [µM] | GI50 (SK-MEL-2 melanoma) [µM] | GI50 (SNB-75 CNS) [µM] | GI50 (SW-620 colon) [µM] | GI50 (T-47D breast) [µM] | GI50 (TK-10 renal) [µM]
CC(C)(C)c1ccc(O)c(Br)c1 | > 100 µM | > 100 µM | > 100 µM | > 100 µM | > 100 µM | > 100 µM | > 100 µM | > 100 µM | > 100 µM | > 100 µM |  |  |  |  |  |  |  |  |  | 
CC(C)(C)OC(=O)N1C(C2=COc3ccccc3O2)=COc2cccnc21 | 2.76 µM | 3.25 µM | 4.2 µM | 4.06 µM | 4.01 µM | 3.96 µM | 29.2 µM | 4.56 µM | 3.45 µM | 7.72 µM |  |  |  |  |  |  |  |  |  | 
CC(Br)C(=O)c1ccc2cc(Br)c3ccccc3c2c1 (stereo not given) | 31.3 µM | 29.7 µM | 32.2 µM | 27.5 µM |  | 26.5 µM | 29 µM | 26.3 µM | 30.5 µM | 33.1 µM |  |  |  |  |  |  |  |  |  | 
Cc1cc(O)c2c(c1O)C(=O)c1c(O)ccc(O)c1C2=O | > 100 µM | > 100 µM | > 100 µM | > 100 µM | > 100 µM | > 100 µM | > 100 µM | > 100 µM | > 100 µM | > 100 µM |  |  |  |  |  |  |  |  |  | 
O=P(O)(O)OP(=O)(O)O | > 100 µM | > 100 µM | > 100 µM | > 100 µM | > 100 µM | > 100 µM | > 100 µM | > 100 µM | > 100 µM | > 100 µM |  |  |  |  |  |  |  |  |  | 
COc1cccc(/C=N/[N-]C(N)=O)c1[O-].[Cu+2].[OH3+].c1cnc2c(c1)ccc1cccnc12 |  | 15.8 µM | 24.7 µM | 31.9 µM | 21.6 µM | 32.1 µM | 24.4 µM | > 100 µM |  | 30.4 µM |  |  |  |  |  |  |  |  |  | 
O=S1c2ccccc2N=C(c2ccc3ccccc3c2)CC1c1ccccc1 (stereo not given) |  | 39 µM | 56.1 µM | 30 µM | 37.7 µM | 92.3 µM | 38.5 µM | 29.3 µM |  | 68.7 µM |  |  |  |  |  |  |  |  |  | 
O=c1oc2c(ccc3occc32)c(N2CCCCC2)c1-c1ccccc1 |  | > 100 µM | > 100 µM | > 100 µM | > 100 µM | > 100 µM | > 100 µM | > 100 µM |  |  |  |  |  |  |  |  |  |  |  | 
C[C@H](Nc1ccc(C#N)n(C)c1=O)c1cc2cc(Cl)ccc2[nH]c1=O | > 100 µM | > 100 µM | 85.6 µM | > 100 µM | > 100 µM | 94 µM | 55.4 µM | > 100 µM | 94.4 µM | > 100 µM | 33 | 35.4 | 19.3 | 33.2 | 40.2 | 26.7 | 4.67 | 46.3 | 17.3 | 37.8
Cc1cc(N2CCOCC2)nc(N(CCCNc2ccnc3cc(Cl)ccc23)Cc2ccc3c(c2)OCO3)n1 | 2.93 µM |  |  | 4.09 µM |  | 2.66 µM | 2.93 µM | 3.05 µM | 3.93 µM |  | 1.43 |  |  | 1.85 |  | 1.26 | 1.5 | 1.44 | 1.41 | 
CCN(CC)/[N+]([O-])=N/OC |  | > 100 µM |  | > 100 µM | > 100 µM | > 100 µM |  | > 100 µM |  | > 100 µM |  |  |  |  |  |  |  |  |  | 
COC1OC(C(=O)CP(=O)(OC)OC)C(OCc2ccccc2)C(OCc2ccccc2)C1OCc1ccccc1 (stereo not given) | 31.3 µM and 33.5 µM | 30.3 µM and 32.9 µM | 28.4 µM and 36.7 µM | 36.8 µM and 44.5 µM | 33 µM and 31.9 µM | 30.7 µM and 31.3 µM | 29.9 µM and 30.6 µM | > 100 µM and 58 µM | 39.6 µM and 43.7 µM | 30.9 µM and 33.9 µM |  |  |  |  |  |  |  |  |  | 
O=C(CSc1nc2ccc(Cl)cc2c(=O)n1-c1ccccc1)N=Nc1c(O)[nH]c2ccc(F)cc12 | 4.85 µM | 7.57 µM | 5.65 µM | 3.33 µM | 15.2 µM | 5.3 µM | 5.65 µM | 5.43 µM | 4.8 µM | 15.5 µM |  |  |  |  |  |  |  |  |  | 
CCCCCCOC(=O)C(N)Cc1ccc(OC)cc1 (stereo not given) | > 100 µM | > 100 µM | > 100 µM | > 100 µM | > 100 µM | > 100 µM | > 100 µM | > 100 µM | > 100 µM | > 100 µM |  |  |  |  |  |  |  |  |  | 
C/C(=C\CNc1ncnc2nc(Cl)[nH]c12)CO | > 100 µM | > 100 µM | > 100 µM | > 100 µM | > 100 µM |  | > 100 µM | > 100 µM | > 100 µM | > 100 µM |  |  |  |  |  |  |  |  |  | 
O=CC(O)C(O)C(O)COc1cc(CO)cc2c1C(=O)c1ccccc1C2=O (stereo not given) |  | > 100 µM | > 100 µM | > 100 µM | > 100 µM | > 100 µM | > 100 µM | > 100 µM |  | > 100 µM |  |  |  |  |  |  |  |  |  | 
COC(=N)C(C)C |  | > 100 µM | > 100 µM |  | > 100 µM |  | > 100 µM | > 100 µM |  | > 100 µM |  |  |  |  |  |  |  |  |  | 
CC(C)c1ccc2c(c1)[C@@]1(C)CC[C@H](C)C(C)(C)C1CC2 (stereo not given in full) | 59.4 µM | 35.6 µM | 30.3 µM | 33.1 µM | 39.6 µM | 63.3 µM | 31.6 µM | > 100 µM | 66.4 µM | 33.1 µM |  |  |  |  |  |  |  |  |  | 
Clc1ccc(NCc2nnc(COc3ccc(OCc4nnc(CNc5ccc(Cl)cc5)o4)c(Cl)c3)o2)cc1 | > 100 µM | > 100 µM |  | > 100 µM |  | > 100 µM |  | > 100 µM | > 100 µM | > 100 µM |  |  |  |  |  |  |  |  |  | 
NCCCCN | > 100 µM | > 100 µM | 51.5 µM | > 100 µM | > 100 µM | > 100 µM | > 100 µM | > 100 µM | > 100 µM | > 100 µM |  |  |  |  |  |  |  |  |  | 
CN(C)C/C=C(/c1ccc(Br)cc1)c1cccnc1 | > 100 µM | > 100 µM | > 100 µM | > 100 µM | > 100 µM | 37.6 µM | > 100 µM | > 100 µM | > 100 µM | > 100 µM |  |  |  |  |  |  |  |  |  | 
